Experimental data from patent publication US20090111781A1, “Use of Cymipristone Type Compounds in Aids Treatment” (SHANGHAI THREE-ALLIANCE BIOTECHNOLOGIES CO., LTD., priority 2005, published 2009).
pIC50: −log10 of the molar value. Where “and” joins values, the source holds several entries; their conditions need not be identical. Equal values may be shown once.

Legend:
[1] = target: T1, mineralocorticoid receptor (MR) (Homo sapiens, UniProt P08235); assay: Binding activity on human nuclear receptor MR; conditions: n = 4
T1 sequence (P08235 1-984): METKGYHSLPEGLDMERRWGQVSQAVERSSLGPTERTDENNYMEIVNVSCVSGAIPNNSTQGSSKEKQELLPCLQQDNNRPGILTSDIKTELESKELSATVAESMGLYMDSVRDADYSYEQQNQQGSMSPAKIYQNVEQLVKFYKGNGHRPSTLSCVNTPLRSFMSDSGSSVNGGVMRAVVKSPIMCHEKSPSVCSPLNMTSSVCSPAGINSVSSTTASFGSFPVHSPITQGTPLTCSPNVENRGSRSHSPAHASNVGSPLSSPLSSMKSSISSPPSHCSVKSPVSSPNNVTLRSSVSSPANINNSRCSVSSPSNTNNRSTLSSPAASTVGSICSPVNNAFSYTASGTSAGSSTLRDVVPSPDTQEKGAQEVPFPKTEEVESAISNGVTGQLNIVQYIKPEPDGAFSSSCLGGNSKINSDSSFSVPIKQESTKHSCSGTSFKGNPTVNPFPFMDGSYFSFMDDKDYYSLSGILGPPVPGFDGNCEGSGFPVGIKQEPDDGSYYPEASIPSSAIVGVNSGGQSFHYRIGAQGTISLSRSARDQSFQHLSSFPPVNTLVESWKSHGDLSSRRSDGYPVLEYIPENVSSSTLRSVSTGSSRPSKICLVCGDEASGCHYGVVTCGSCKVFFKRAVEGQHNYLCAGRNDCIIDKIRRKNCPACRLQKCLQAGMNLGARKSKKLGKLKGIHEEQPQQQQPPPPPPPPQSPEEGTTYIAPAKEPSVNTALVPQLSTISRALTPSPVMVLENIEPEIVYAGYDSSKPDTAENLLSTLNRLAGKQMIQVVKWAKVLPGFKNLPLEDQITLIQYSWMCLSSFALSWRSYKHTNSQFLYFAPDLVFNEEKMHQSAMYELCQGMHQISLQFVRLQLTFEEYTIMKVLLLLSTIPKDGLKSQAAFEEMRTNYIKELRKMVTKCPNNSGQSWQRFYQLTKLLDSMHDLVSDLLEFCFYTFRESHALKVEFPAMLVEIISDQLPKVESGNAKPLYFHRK
Description: Buffer solution is composed of 25 mM NaPO4, 20 mM NaMoO4, 10 mM KF and 10% glycerol (pH=7.3) and stored under 4° C. Stock solution is prepared with CHAPS and DTT and stored under −20° C. […] Add 2.5 μl/hole into 96-pore plate. Take out appropriate amount of buffer solution reserve into solution to make the final concentration of CHAPS and DDT to become 0.25 mM and 2 mM respectively. Add protease inhibitors (aprotinin and leupeptin) to make its final concentration to become 1 μg/μl, and place in an ice bath. After adding human nuclear receptor GR (1:8), PR (1:100), ER (1:2000), AR (1:200) and MR (1:40) into the reaction system respectively, adequately mix suitable quantity of [^3H]-dexamethasone, [^3H]-progesterone, [^3H]-estradiol and [^3H]-DHT (from Amersham), rapidly add into 96-pore plate (100 μl/pore) and incubate overnight under 4° C. On the next day, add 25 μl of hydroxyapatite suspension into each pore and mix with shaking. After incubating for 10 min, separate by centrifuge for 3 min at 2500 rpm. The precipitate is washed with 100 μl of buffer solution and separated by centrifuge twice. Add 150 μl of scintillation solution (from Perkin Elmer) into each pore, mix with shaking and count by MicroBeta counter.

[2] = test system: HIV-1 IIIB P24 antigen; assay: microbe, parasite or virus in culture; format: cell-based; conditions: for Selection index (SI): MT-4
Description: (1) Inoculate MT4 cells into 96-pore cell culture plate, 1×10^5 cells/ml, infect with HIV-1-IIIB virus strain of about 100TCID50, and add cymipristone solution at the same time, its concentration is below 100 μg/ml, triply diluted to 8 concentrations. Set virus TCID50 determination group and cell control group. Each concentration is duplicated in two pore. Incubate under 37° C., 5% CO2 and saturated humidity in an incubator.
Daily observe the cytopathy in above culture plate by microscope, record the degree of cytopathy with routine method, and calculate the 50% toxic concentration (TC50) and maximum nontoxic concentration (TC0) of drug according to Reed & Muench method. (3) Determination on HIV-1 P24 Antigen with Supernatant Liquid Pipetted from Cell Culture Plate Added Drug After 4 days (96 hours), pipette out the supernatant liquid from cell culture added drug and freeze HIV-1 P24 antigen used for determination.
Take the supernatant liquid on the fourth day, combine the liquid from two pore, and dilute by 1:100, Determine the HIV-1 P24 antigen titer (OD value) by ELISA method according to the instruction of HIV-1 P24 antigen reagent kit. […] At the same time, determine the 50% infection concentration of HIV-1/IIIB virus strain in MT-4 cells and virus infection quantity (TCID50).
(1) Calculation of TC50, IC50 and SI of Drug in Cell Culture According to Reed & Muench Method

[3] = Human immunodeficiency virus 1, IIIB, MT4, read-out: Inhibition rate on HIV-1 P24 antigen

In the case of `CC#C[C@]1(O)CC[C@H]2[C@@H]3CCC4=CC(=O)CCC4=C3[C@@H](c3ccc(N(C)C4CCCCC4)cc3)C[C@@]21C` [Cymipristone, 11β-[4-(N-methyl-N-cyclohexylamino)phenyl]-17α-(1-propynyl)-17β-hydroxyl-4,9-estradiene-3-one], the pIC50 [1] was less than 5.70, the IC50 ([2]; Human immunodeficiency virus 1, IIIB, MT4, read-out: IC50 on HIV-1 IIIB P24 antigen) was 1.3 µg/mL and 2.62 µM and the inhibition at 0.05 µg/mL [2, 3] was 14%. For the same molecule, the inhibition at 0.14 µg/mL [2, 3] was 17%, the inhibition at 0.41 µg/mL [2, 3] was 13% and the inhibition at 1.23 µg/mL [2, 3] was 29%. For the same molecule, the inhibition at 3.7 µg/mL [2, 3] was 93%, the “Selection index (SI)” value ([2]; SI=TC50/IC50, CPE cytotoxicity) was 5.93 and the “Selection index (SI)” value ([2]; SI=TC50/IC50, MTT cytotoxicity) was 23.28. For the same molecule, the “Effect on HIV-1 P24 antigen formation in MT-4 cell culture (in words)” value ([2]; conclusion) was “significant inhibitory effect”.
